We go through 31 compounds from patent US20130116241A1, “NOVEL INHIBITOR COMPOUNDS OF PHOSPHODIESTERASE TYPE 10A” (AbbVie Inc., priority 2011, published 2013).

Counter-ions that a name gives are not always drawn.

human PDE10A, sequence (Q9Y233 290-1055 limits assumed): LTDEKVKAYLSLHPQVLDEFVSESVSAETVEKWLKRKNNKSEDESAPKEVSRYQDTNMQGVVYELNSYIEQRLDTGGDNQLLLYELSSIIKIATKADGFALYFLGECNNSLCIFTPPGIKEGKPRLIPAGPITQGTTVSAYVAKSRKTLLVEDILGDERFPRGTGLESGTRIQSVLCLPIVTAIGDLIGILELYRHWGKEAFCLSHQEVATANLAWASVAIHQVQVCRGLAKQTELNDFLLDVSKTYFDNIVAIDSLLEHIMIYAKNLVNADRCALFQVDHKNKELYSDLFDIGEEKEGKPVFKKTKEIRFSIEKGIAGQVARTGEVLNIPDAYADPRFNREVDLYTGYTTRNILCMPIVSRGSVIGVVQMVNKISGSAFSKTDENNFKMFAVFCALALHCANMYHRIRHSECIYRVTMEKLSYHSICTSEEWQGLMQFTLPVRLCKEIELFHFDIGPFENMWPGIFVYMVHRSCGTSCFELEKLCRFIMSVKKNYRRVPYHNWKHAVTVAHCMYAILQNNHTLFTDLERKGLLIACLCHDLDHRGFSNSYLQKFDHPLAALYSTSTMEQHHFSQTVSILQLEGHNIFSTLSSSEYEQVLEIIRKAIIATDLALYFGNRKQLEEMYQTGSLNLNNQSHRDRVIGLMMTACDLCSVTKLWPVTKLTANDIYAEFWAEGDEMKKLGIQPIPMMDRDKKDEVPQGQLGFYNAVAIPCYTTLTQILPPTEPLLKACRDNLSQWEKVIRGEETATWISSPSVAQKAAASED

The first test addresses human PDE10A (UniProt Q9Y233). Put plainly: Measurement of PDE activity (recombinant enzyme, HTRF cAMP kit). In kind it is biochemical. The note with it: Table 1, substrate 20 nM for PDE10, 60 minutes at 29 C. A digest of the protocol: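 Recombinant human PDE10A (10–250 pM range across PDEs) with 20 nM cAMP substrate in 20 mM Tris-HCl pH 7.5, 10 mM MgCl2, 0.1% BSA, compound pre-mixed with enzyme. Ran 60 min at 29 °C. Remaining cAMP read by HTRF, converted to % of uninhibited activity, and IC50 fitted.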
On the technique in general: Time-resolved FRET reads energy transfer from a long-lived donor to a nearby acceptor.
As for `O=c1c2c(C3=CCNCC3)cccc2cnn1CCc1cn2ccccc2n1` [compound 375, hydrochloride], the IC50 was below 100 nM.

Staying with this test, now noted: Table 1, substrate 20 nM for PDE10, 60 minutes at 29 C, read-out: IC50.
As to `O=c1c2c(-c3ccc(F)cc3Cl)csc2cnn1CCc1ccc2ccccc2n1` [Example 64, 3-(2-chloro-4-fluorophenyl)-5-[2-(quinolin-2-yl)ethyl]thieno[2,3-d]pyridazin-4(5H)-one], the IC50 lay within 200 to 500 nM. As to `O=c1c2c(-c3cccc(F)c3F)cccc2cnn1CCc1ccc2ccccc2n1` [Example 147, 8-(2,3-Difluorophenyl)-2-[2-(quinolin-2-yl)ethyl]phthalazin-1(2H)-one], the IC50 was below 100 nM. Turning to `O=c1c2c(-c3ccccc3Cl)cccc2cnn1CCc1ccc2ccccc2n1` [Example 108, 8-(2-chlorophenyl)-2-[2-(quinolin-2-yl)ethyl]phthalazin-1(2H)-one], the IC50 fell in the range of 200 to 500 nM. Turning to `O=c1c2c(-c3ccccc3F)cccc2cnn1CCc1ccc2ccccc2n1` [Example 111, 8-(2-Fluorophenyl)-2-[2-(quinolin-2-yl)ethyl]phthalazin-1(2H)-one], the IC50 was below 100 nM. `Cc1ccc(-c2cccc3cnn(CCc4ccc5ccccc5n4)c(=O)c23)cc1` [Example 100, 8-(4-Methylphenyl)-2-[2-(quinolin-2-yl)ethyl]phthalazin-1(2H)-one]: the IC50 fell in the range of 200 to 500 nM.

Regarding `O=c1c2c(-c3ccc4cc[nH]c4c3)csc2cnn1CCc1ccc2ccccc2n1` [Example 36, 3-(1H-indol-6-yl)-5-[2-(quinolin-2-yl)ethyl]thieno[2,3-d]pyridazin-4(5H)-one], the IC50 was below 100 nM. As to `O=c1c2c(-c3ccncc3)csc2ccn1CCc1ccc2ccccc2n1` [Example 205, 3-(Pyridin-4-yl)-5-[2-(quinolin-2-yl)ethyl]thieno[3,2-c]pyridin-4(5H)-one hydrochloride], the IC50 is below 100 nM.

Regarding `Cc1cc2ccccc2nc1CCn1ccc2cccc(-c3ccncc3)c2c1=O` [compound 327, 2-[2-(3-methylquinolin-2-yl)ethyl]-8-(pyridin-4-yl)isoquinolin-1(2H)-one], the IC50 is below 100 nM. In the case of `O=c1c2c(NC3CCCNC3)cccc2cnn1CCc1cn2ccccc2n1` (stereo not shown) [compound 393, dihydrochloride], the IC50 is below 100 nM. On the same count and under the same terms, the result for `CC(=O)N1CCC(Nc2cccc3cnn(CCc4cn5ccccc5n4)c(=O)c23)CC1` [compound 390, 8-[(1-acetylpiperidin-4-yl)amino]-2-[2-(imidazo[1,2-a]pyridin-2-yl)ethyl]phthalazin-1(2H)-one] reads 200 to 500 nM; that for `Cn1nccc1-c1csc2cnn(CCc3ccc4ccccc4n3)c(=O)c12` [Example 88, 3-(1-methyl-1H-pyrazol-5-yl)-5-[2-(quinolin-2-yl)ethyl]thieno[2,3-d]pyridazin-4(5H)-one], below 100 nM; that for `Cc1n[nH]c(C)c1-c1cccc2cnn(CCc3ccc4ccccc4n3)c(=O)c12` [Example 121, 8-(3,5-Dimethyl-1H-pyrazol-4-yl)-2-[2-(quinolin-2-yl)ethyl]phthalazin-1(2H)-one], 100 to 200 nM. Take `O=c1c2c(N[C@@H]3CCNC3)cccc2cnn1CCc1cn2ccccc2n1` [Example 219, 2-[2-(Imidazo[1,2-a]pyridin-2-yl)ethyl]-8-[(3R)-pyrrolidin-3-ylamino]phthalazin-1(2H)-one dihydrochloride]: the IC50 is below 100 nM. For `O=c1c2c(-c3cccc4cnccc34)csc2cnn1CCc1ccc2ccccc2n1` [Example 44, 3-(isoquinolin-5-yl)-5-[2-(quinolin-2-yl)ethyl]thieno[2,3-d]pyridazin-4(5H)-one], the IC50 lay in the range of 200 to 500 nM. Still for that read-out and setting: as for `O=c1c2c(N3CC4COCC4C3)cccc2cnn1CCc1cn2ccccc2n1` (stereo not shown) [Example 176, 2-[2-(Imidazo[1,2-a]pyridin-2-yl)ethyl]-8-(tetrahydro-1H-furo[3,4-c]pyrrol-5(3H)-yl)phthalazin-1(2H)-one hydrochloride], the figure is below 100 nM. `O=c1c2c(C3CCOCC3)cccc2ccn1C1CC1c1ccc2ccccc2n1` (stereo not drawn) [Example 257, anti 2-(2-(quinolin-2-yl)cyclopropyl)-8-(tetrahydro-2H-pyran-4-yl)isoquinolin-1(2H)-one]: the IC50 was below 100 nM. Regarding `O=c1c2c(-c3ccnnc3)csc2ccn1C1CC1c1ccc2ccccc2n1` (stereo not shown) [compound 285], the IC50 is below 100 nM.

In the case of `O=c1c2ccccc2c(-c2cccnc2)nn1CCc1ccc2ccccc2n1` [compound 399, 4-(pyridin-3-yl)-2-[2-(quinolin-2-yl)ethyl]phthalazin-1(2H)-one], the IC50 is below 100 nM. For the compound `O=c1c2cccc(N3CCOCC3)c2ccn1C1CC1c1ccc2ccccc2n1` (stereo not shown) [compound 299], the IC50 was below 100 nM. With `O=c1c2c(-c3ccncc3)csc2ccn1CCc1cn2ccccc2n1` [Example 210, 5-[2-(Imidazo[1,2-a]pyridin-2-yl)ethyl]-3-(pyridin-4-yl)thieno[3,2-c]pyridin-4(5H)-one hydrochloride], the IC50 was below 100 nM. As for `O=c1c2c(-c3cccc(O)c3)csc2ccn1CCc1ccc2ccccc2n1` [Example 208, 3-(3-Hydroxyphenyl)-5-[2-(quinolin-2-yl)ethyl]thieno[3,2-c]pyridin-4(5H)-one hydrochloride], the IC50 was below 100 nM. The same measure, in the same setting: as for `O=c1c2cccc(-c3cccnc3)c2cnn1CCc1cn2ccccc2n1` [Example 196, 2-[2-(Imidazo[1,2-a]pyridin-2-yl)ethyl]-5-(pyridin-3-yl)phthalazin-1(2H)-one], the figure is below 100 nM; as for `O=c1c2c(-c3ccncc3)csc2c(-c2ccncc2)nn1CCc1ccccn1` [Example 5, 3,7-Di(pyridin-4-yl)-5-[2-(pyridin-2-yl)ethyl]thieno[2,3-d]pyridazin-4(5H)-one], below 100 nM; as for `O=c1c2c(-c3ccc4c(c3)CCO4)cccc2cnn1CCc1ccc2ccccc2n1` [Example 130, 8-(2,3-Dihydro-1-benzofuran-5-yl)-2-[2-(quinolin-2-yl)ethyl]phthalazin-1(2H)-one], 200 to 500 nM.

As to `O=c1c2c(-c3cncnc3)cccc2ccn1C1CC1c1ccc2ccccc2n1` (single isomer, unassigned) [Example 240a, anti (+) 8-(pyrimidin-5-yl)-2-(2-(quinolin-2-yl)cyclopropyl)isoquinolin-1(2H)-one], the IC50 was below 100 nM. On the same count and under the same terms, the result for `Cn1nccc1-c1cccc2c(=O)n(CCc3ccc4ccccc4n3)ncc12` [Example 194, 5-(1-Methyl-1H-pyrazol-5-yl)-2-[2-(quinolin-2-yl)ethyl]phthalazin-1(2H)-one] reads below 100 nM; that for `Cc1csc2c(-c3ccncc3)cn(CCc3ccc4ccccc4n3)c(=O)c12` [Example 216, 3-Methyl-7-(pyridin-4-yl)-5-(2-(quinolin-2-yl)ethyl)thieno[3,2-c]pyridin-4(5H)-one], below 100 nM; that for `Cc1ccccc1-c1cccc2cnn(CCc3ccc4ccccc4n3)c(=O)c12` [Example 109, 8-(2-Methylphenyl)-2-[2-(quinolin-2-yl)ethyl]phthalazin-1(2H)-one], 200 to 500 nM. On to `O=c1c2c(-c3ccc(F)nc3)csc2ccn1C1CC1c1ccc2ccccc2n1` (stereo not shown) [compound 283], for which the IC50 is below 100 nM. `O=c1c2c(N3CCOCC3)cccc2cnn1CCc1ccc2ccccc2n1` [compound 329, hydrochloride]: the IC50 is below 100 nM.

As usually defined, the IC50 is the concentration that inhibits the measured activity by half.
